Some test systems named below: BT-549; CAKI-1; CCRF-CEM; DU-145; HCT-116; HCT-15; HL-60; HT-29; IGROV-1; NCI-H522; OVCAR-8; RXF 393; SF-268; SF-295; SF-539; SK-MEL-2; SK-MEL-5; SW-620; UACC-62; EKVX.
Common to all, as to assay: NCI-60 cell line screen, 48 h

SMILES strings stand for the structures.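 Results reflect a 48-hour exposure of cells in 96-well plates to compound at five concentrations. GI50: concentration for 50% inhibition of growth.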 Activity calls are given as the source filed them. Cut-off read from the data, not from the text of the source: active = GI50 up to about 1.1 µM and inactive = higher.

The record followed here is ChEMBL document CHEMBL1201862, “PubChem BioAssay data set” (2004).

For `Nc1nc(N)c2cc(CNc3ccc(C(=O)NC(CC(=O)O)C(=O)O)c(Cl)c3)ccc2n1` (configuration not stated), the GI50 was 25.8 µM (inactive) in the assay on BT-549; 0.0877 µM (active) in the assay with CAKI-1; 0.0342 µM (active) in the assay on CCRF-CEM; 0.0501 µM (active) in the assay with DU-145; < 0.01 µM (active) in the assay on HCT-116; 0.0203 µM in the assay with HCT-15. For the same compound, the GI50 is 14.3 µM (inactive) in the assay on HL-60; < 0.0143 µM (active) in the assay with HT-29; 0.112 µM (active) with IGROV-1; 0.502 µM (active) in the assay on NCI-H522; 0.032 µM (active) in the assay on OVCAR-8; 61 µM (inactive) in the assay on RXF 393. Moreover, the GI50 is 0.0582 µM (active) in the assay with SF-268; 0.0698 µM (active) with SF-295; 0.313 µM (active) in the assay with SF-539; 15 µM (inactive) in the assay with SK-MEL-2; 0.162 µM (active) with SK-MEL-5; < 0.0103 µM (active) in the assay on SW-620. Further, in the assay with UACC-62, the GI50 is 0.0893 µM (active).

In the case of `O=c1c(-c2ccccc2)nnc2n(Cc3ccccc3)c3ccccc3n12`, the GI50 in the assay on BT-549, in the assay with CAKI-1, in the assay with CCRF-CEM, in the assay with DU-145, with EKVX and in the assay with HCT-116 was > 100 µM (inactive) in each case. Also, the GI50 with HCT-15 was greater than 100 µM; with HL-60, > 100 µM (inactive); in the assay with HT-29, > 100 µM (inactive); with IGROV-1, > 100 µM (inactive); in the assay on NCI-H522, 26.7 µM (inactive); in the assay on OVCAR-8 it was > 100 µM (inactive). For the same compound, the GI50 was 95.1 µM (inactive) in the assay with RXF 393; > 100 µM (inactive) with SF-268; > 100 µM (inactive) in the assay with SF-295; 94.8 µM (inactive) in the assay on SF-539; > 100 µM (inactive) in the assay on SK-MEL-2; > 100 µM (inactive) in the assay on SK-MEL-5. Besides, the GI50 in the assay with SW-620 was > 100 µM (inactive).

Turning to `O=Cc1ccccc1B(O)O`, the GI50 with BT-549 is 15.1 µM (inactive); in the assay on CAKI-1, 47.5 µM (inactive); in the assay with CCRF-CEM, 6.34 µM (inactive); in the assay with DU-145, < 0.01 µM (active); in the assay with EKVX, < 0.01 µM (active); with HCT-116, 43.2 µM (inactive). Also, the GI50 was 62.7 µM in the assay with HCT-15; 22 µM (inactive) in the assay with HL-60; 18.9 µM (inactive) with HT-29; 29.6 µM (inactive) with IGROV-1; 22.9 µM (inactive) with NCI-H522; 67.8 µM (inactive) with OVCAR-8. Besides, the GI50 was 15.7 µM (inactive) with RXF 393; > 100 µM (inactive) in the assay with SF-268; > 100 µM (inactive) in the assay on SF-295; > 100 µM (inactive) in the assay on SF-539; > 100 µM (inactive) in the assay on SK-MEL-2; 25.7 µM (inactive) with SW-620. For the same compound, the GI50 in the assay on UACC-62 was 31.5 µM (inactive).

`O=P1(N(CCCl)CCCl)Oc2ccc(Cl)cc2Sc2c(ccc(Cl)c2Cl)O1` (configuration not stated): the GI50 was 29.1 µM (inactive) with BT-549; 15.2 µM (inactive) with CAKI-1; 4.41 µM (inactive) in the assay on CCRF-CEM; 63.7 µM (inactive) with DU-145; 8.57 µM (inactive) in the assay with EKVX; 4.97 µM (inactive) in the assay on HCT-116. The GI50 in the assay with HCT-15 is 5.18 µM; in the assay with HL-60 it was 4.1 µM (inactive); with HT-29, 7.29 µM (inactive); in the assay with NCI-H522, 6.4 µM (inactive); in the assay on OVCAR-8, 8.71 µM (inactive); in the assay on RXF 393, 3.95 µM (inactive). Besides, the GI50 is 92.9 µM (inactive) in the assay with SF-268; 3.18 µM (inactive) in the assay on SF-295; 23.3 µM (inactive) with SF-539; 9.68 µM (inactive) with SK-MEL-2; 5.02 µM (inactive) in the assay on SK-MEL-5; 6.68 µM (inactive) with SW-620. For the same compound, the GI50 in the assay with UACC-62 is 17.1 µM (inactive).

For `CC1=C(/C=C/C(=O)O)C(C)(C)CCC1`, the GI50 in the assay with BT-549 was > 100 µM (inactive); in the assay with CAKI-1, > 100 µM (inactive); in the assay with DU-145 it was > 100 µM (inactive); in the assay with EKVX, > 100 µM (inactive); with HCT-116, > 100 µM (inactive); with HCT-15, greater than 100 µM. The GI50 in the assay on HL-60, with HT-29, in the assay with IGROV-1, in the assay with NCI-H522, in the assay with OVCAR-8 and in the assay on RXF 393 was > 100 µM (inactive) in each case. For the same compound, the GI50 in the assay with SF-268, in the assay with SF-295, with SF-539, with SK-MEL-2, with SK-MEL-5 and with SW-620 was > 100 µM (inactive) each time. In the assay on UACC-62, the GI50 is > 100 µM (inactive).

Take `CCOC(=O)/C(=C\NC(C)(C)CO)c1nc2ccccc2[nH]1`: the GI50 with BT-549 is > 100 µM (inactive); in the assay with CAKI-1, > 100 µM (inactive); with CCRF-CEM, 35.6 µM (inactive); in the assay with DU-145 it was > 100 µM (inactive); in the assay with EKVX it was > 100 µM (inactive); with HCT-116, > 100 µM (inactive). For the same compound, the GI50 in the assay on HCT-15 was 81.7 µM; in the assay with HL-60, 44.5 µM (inactive); in the assay on HT-29, 88.7 µM (inactive); in the assay with IGROV-1 it was 41.5 µM (inactive); in the assay on NCI-H522 it was 61.7 µM (inactive); in the assay with OVCAR-8 it was 74.8 µM (inactive). Further, the GI50 in the assay with RXF 393 was > 100 µM (inactive); in the assay on SF-268, 81.5 µM (inactive); in the assay with SF-295, 64.6 µM (inactive); in the assay with SF-539, > 100 µM (inactive); in the assay with SK-MEL-5, 26.7 µM (inactive); in the assay on SW-620, > 100 µM (inactive). Also, the GI50 in the assay on UACC-62 is 43.5 µM (inactive).

Regarding `O=C(CCCN1CCC2(CC1)CC(=O)N(N1CCOCC1)C2=O)c1ccc(F)cc1`, the GI50 is > 100 µM (inactive) with BT-549; > 100 µM (inactive) in the assay on CAKI-1; > 100 µM (inactive) with CCRF-CEM; > 100 µM (inactive) with DU-145; > 100 µM (inactive) in the assay on HCT-116; greater than 100 µM with HCT-15. Besides, the GI50 in the assay on HL-60, in the assay with HT-29, in the assay on IGROV-1, with NCI-H522, in the assay on OVCAR-8 and with RXF 393 was > 100 µM (inactive) each time. The GI50 in the assay on SF-268, with SF-295, with SF-539, with SK-MEL-2, with SK-MEL-5 and in the assay with SW-620 was > 100 µM (inactive) throughout. The GI50 in the assay with UACC-62 was > 100 µM (inactive).

`N#CCCC1(CCC#N)S(=O)(=O)OCCOS1(=O)=O`: the GI50 with BT-549 was 6.04 µM (inactive); in the assay with CAKI-1, 40.6 µM (inactive); with CCRF-CEM, 28.7 µM (inactive); with DU-145, 58.3 µM (inactive); in the assay on EKVX it was > 100 µM (inactive); with HCT-116 it was 40.9 µM (inactive). Besides, the GI50 is 36.8 µM in the assay with HCT-15; 23.3 µM (inactive) with HL-60; 45.9 µM (inactive) with HT-29; 27.1 µM (inactive) in the assay on NCI-H522; 89.1 µM (inactive) with OVCAR-8; 37.1 µM (inactive) in the assay with RXF 393. Moreover, the GI50 was 32.9 µM (inactive) with SF-268; 8.99 µM (inactive) in the assay on SF-295; 8.34 µM (inactive) with SF-539; 42.2 µM (inactive) with SK-MEL-2; 47.9 µM (inactive) with SK-MEL-5; 24.1 µM (inactive) in the assay with SW-620. The GI50 in the assay on UACC-62 was 9.4 µM (inactive).
